Among the data in US12692254B2, “Benzimidazole inhibitors of PAD enzymes” (BRISTOL-MYERS SQUIBB COMPANY, priority 2018, dated 2026) are IC50 values, retold here.

pIC50: −log10 of the molar value.

For the experiment, the target named is human PAD4 (hPAD4) (Homo sapiens, UniProt Q9UM07). As to the kind of experiment: RFMS human PAD4 functional assay (rapid-fire mass spectrum). To be noted: 5 nM hPAD4 enzyme, 250 μM BAEE, 50 μM Calcium; 30 min preincubation, 90 min reaction at 37° C. Format: biochemical. In short, it runs like this:
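PAD4 (10 nM) preincubated 30 min with compound (top final 50 μM), then BAEE substrate added in pH 7.5 HEPES buffer with DTT, 50 μM calcium, TPEN; 90 min at 37° C. After TCA quench, citrulline derivatized with phenyl glyoxal (4 mM final, 30 min, 37° C) and quantified by RapidFire MS against internal standard.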

Sequence of human PAD4 (hPAD4) (Q9UM07 whole entry): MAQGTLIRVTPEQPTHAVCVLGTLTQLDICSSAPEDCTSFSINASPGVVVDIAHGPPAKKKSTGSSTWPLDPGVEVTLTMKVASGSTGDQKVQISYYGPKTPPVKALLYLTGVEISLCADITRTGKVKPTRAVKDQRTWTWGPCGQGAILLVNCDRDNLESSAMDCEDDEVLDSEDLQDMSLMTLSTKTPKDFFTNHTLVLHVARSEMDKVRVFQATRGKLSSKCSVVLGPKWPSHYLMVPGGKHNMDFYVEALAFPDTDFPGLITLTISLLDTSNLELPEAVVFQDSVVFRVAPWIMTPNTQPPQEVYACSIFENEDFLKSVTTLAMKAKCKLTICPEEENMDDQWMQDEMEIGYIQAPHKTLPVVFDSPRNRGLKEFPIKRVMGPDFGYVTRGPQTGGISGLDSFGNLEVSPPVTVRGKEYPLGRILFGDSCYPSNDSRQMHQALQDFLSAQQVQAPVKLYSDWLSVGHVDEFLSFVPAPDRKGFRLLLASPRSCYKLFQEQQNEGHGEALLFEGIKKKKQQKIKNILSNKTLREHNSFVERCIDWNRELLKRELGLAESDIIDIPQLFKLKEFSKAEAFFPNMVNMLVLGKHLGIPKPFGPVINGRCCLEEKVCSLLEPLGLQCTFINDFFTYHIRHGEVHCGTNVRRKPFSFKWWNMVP

The pIC50 is −log10 of the IC50, conventionally taken in molar units. In the case of `COc1cc(C(=O)N2C[C@H](N)C[C@@H](F)C2)cc2nc(-c3cc4cccnc4n3CC3CC3)n(CC3CN(C(=O)c4ccccc4)C3)c12` [Example 452, (3R,5R)-1-{[(1-benzoylazetidin-3-yl)methyl]-2-[1-(cyclopropylmethyl)-1H-pyrrolo[2,3-b]pyridin-2-yl]-7-methoxy-1H-1,3-benzodiazole-5-carbonyl}-5-fluoropiperidin-3-amine], the pIC50 was 7.32.
For `COc1cc(C(=O)N2CC3CCC2[C@@H]3N)cc2nc(-c3cc4ccccc4n3CC3CC3)n(Cc3ccccc3)c12` (stereo partly shown) [Example 270] the value was 6.85; for `COc1cc(C(=O)N2C[C@H]3CC[C@@H]2[C@@H]3N)cc2nc(-c3cc4cc(Cl)ccc4n3C)n(CC3CN(c4cncc(C#N)n4)C3)c12` [Example 59, 6-[3-({5-[(1R,4R,7R)-7-amino-2-azabicyclo[2.2.1]heptane-2-carbonyl]-2-(5-chloro-1-methyl-1H-indol-2-yl)-7-methoxy-1H-1,3-benzodiazol-1-yl}methyl)azetidin-1-yl]pyrazine-2-carbonitrile], 6.77; for `COc1cc(C(=O)N2C[C@H]3CC[C@@H]2[C@@H]3N)cc2nc(-c3cc4cccnc4n3CC3CC3)n(C3CN(C(=O)c4cnc(C#N)nc4)C3)c12` [Example 102, 5-(3-{5-[(1R,4R,7R)-7-amino-2-azabicyclo[2.2.1]heptane-2-carbonyl]-2-[1-(cyclopropylmethyl)-1H-pyrrolo[2,3-b]pyridin-2-yl]-7-methoxy-1H-1,3-benzodiazol-1-yl}azetidine-1-carbonyl)pyrimidine-2-carbonitrile], 6.85.
For `COc1cc(C(=O)N2C[C@H]3CC[C@@H]2[C@@H]3N)cc2nc(-c3cc4ccccc4n3CC3CC3)n(Cc3ccon3)c12` [Example 268, (1R,4R,7R)-2-{2-[1-(cyclopropylmethyl)-1H-indol-2-yl]-7-methoxy-1-[(1,2-oxazol-3-yl)methyl]-1H-1,3-benzodiazole-5-carbonyl}-2-azabicyclo[2.2.1]heptan-7-amine] the value was 6.94; for `COc1cc(C(=O)N2C[C@H]3CC[C@@H]2[C@@H]3N)cc2nc(-c3cc4ccccc4n3CC3CC3)n(Cc3ccnn3C)c12` [Example 265, (1R,4R,7R)-2-{2-[1-(cyclopropylmethyl)-1H-indol-2-yl]-7-methoxy-1-[(1-methyl-1H-pyrazol-5-yl)methyl]-1H-1,3-benzodiazole-5-carbonyl}-2-azabicyclo[2.2.1]heptan-7-amine], 7.19.
For `COc1cc(C(=O)N2C[C@H](N)CC[C@@H]2C)cc2nc(-c3cc4ccccc4n3CC3CC3)n(CC3CN(C(=O)c4ccc(C#N)cc4)C3)c12` [Example 176, 4-[3-({5-[(2S,5R)-5-amino-2-methylpiperidine-1-carbonyl]-2-[1-(cyclopropylmethyl)-1H-indol-2-yl]-7-methoxy-1H-1,3-benzodiazol-1-yl}methyl)azetidine-1-carbonyl]benzonitrile] the value was 7.10.
In the case of `COc1cc(C(=O)N2CC3CCC2[C@@H]3N)cc2nc(-c3cc4ccccc4n3CC3CC3)n(Cc3cnn(-c4ccc(O)nc4)c3)c12` (stereo partly drawn) [Example 399, 5-[4-({5-[(7R)-7-amino-2-azabicyclo[2.2.1]heptane-2-carbonyl]-2-[1-(cyclopropylmethyl)-1H-indol-2-yl]-7-methoxy-1H-1,3-benzodiazol-1-yl}methyl)-1H-pyrazol-1-yl]pyridin-2-ol], the negative logarithm of the IC50 (pIC50) was 7.24.
In the case of `COc1cc(C(=O)N2CC3CCC2[C@@H]3N)cc2nc(-c3cc4cccnc4n3CC3CC3)n(CC3(F)CN(C(=O)c4ccccc4)C3)c12` (stereo partly drawn) [Example 438, (7R)-2-{1-[(1-benzoyl-3-fluoroazetidin-3-yl)methyl]-2-[1-(cyclopropymethyl)-1H-pyrrolo[2,3-b]pyridin-2-yl]-7-methoxy-1H-1,3-benzodiazole-5-carbonyl}-2-azabicyclo[2.2.1]heptan-7-amine], the pIC50 is 7.46.
For `COc1cc(C(=O)N2C[C@H]3CC[C@@H]2[C@@H]3N)cc2nc(-c3cc4ccccc4n3CC3CC3)n(CCN3CCNC3=O)c12` [Example 279, 1-(2-{5-[(1R,4R,7R)-7-amino-2-azabicyclo[2.2.1]heptane-2-carbonyl]-2-[1-(cyclopropylmethyl)-1H-indol-2-yl]-7-methoxy-benzodiazol-1-yl}ethyl)imidazolidin-2-one] the value was 6.31; for `COc1cc(C(=O)N2C[C@H](N)C[C@@H](F)C2)cc2nc(-c3cc4ccccc4n3CC3CC3)n(CC3CC(F)(F)C3)c12` [Example 477, (3R,5R)-1-{2-[1-(cyclopropylmethyl)-1H-indol-2-yl]-1-[(3,3-difluorocyclobutyl)methyl]-7-methoxy-1H-1,3-benzodiazole-5-carbonyl}-5-fluoropiperidin-3-amine], 6.85; for `COc1cc(C(=O)N2C[C@H]3CC[C@@H]2[C@@H]3N)cc2nc(-c3cc4cccnc4n3CC3CC3)n(CC3CN(S(=O)(=O)C(F)(F)F)C3)c12` [Example 325, (1R,4R,7R)-2-{2-[1-(cyclopropylmethyl)-1H-pyrrolo[2,3-b]pyridin-2-yl]-7-methoxy-1-[(1-trifluoromethanesulfonylazetidin-3-yl)methyl]-1H-1,3-benzodiazole-5-carbonyl}-2-azabicyclo[2.2.1]heptan-7-amine], 6.79.
For `CCc1ccccc1-c1nc2cc(C(=O)N3C[C@H]4CC[C@@H]3[C@@H]4N)cc(OC)c2n1CC1CN(c2cncc(C#N)c2)C1` [Example 312, 5-[3-({5-[(1R,4R,7R)-7-amino-2-azabicyclo[2.2.1]heptane-2-carbonyl]-2-(2-ethylphenyl)-7-methoxy-1H-1,3-benzodiazol-1-yl}methyl)azetidin-1-yl]pyridine-3-carbonitrile] the value was 6.42; for `COc1cc(C(=O)N2C[C@H]3CC[C@@H]2[C@@H]3N)cc2nc(-c3cc4ccc(Cl)cc4n3C)n(CC3CN(c4ccnc(C)n4)C3)c12` [Example 45, (1R,4R,7R)-2-[2-(6-chloro-1-methyl-1H-indol-2-yl)-7-methoxy-1-{[1-(2-methylpyrimidin-4-yl)azetidin-3-yl]methyl}-1H-1,3-benzodiazole-5-carbonyl]-2-azabicyclo[2.2.1]heptan-7-amine], 6.94; for `COc1cc(C(=O)N2CC3CCC2[C@@H]3N)cc2nc(-c3cc4ccccc4n3CC3CC3)n(CC3CC(=O)N(C)C3)c12` (mixture of isomers) [Example 262, 4-({5-[(1R,4R,7R)-7-amino-2-azabicyclo[2.2.1]heptane-2-carbonyl]-2-[1-(cyclopropylmethy!)-1H-indol-2-yl]-7-methoxy-1H-1,3-benzodiazol-1-yl}methyl)-1-methylpyrrolidin-2-one], 7.26.
`COc1cc(C(=O)N2C[C@H]3CC[C@@H]2[C@@H]3N)cc2nc(-c3cc4ccccc4n3CC3CC3)n(CC3CN(C(=O)c4ccc(F)cc4)C3)c12` [Example 161, (1R,4R,7R)-2-{2-[1-(cyclopropylmethyl)-1H-indol-2-yl]-1-{[1-(4-fluorobenzoyl)azetidin-3-yl]methyl}-7-methoxy-1H-1,3-benzodiazole-5-carbonyl}-2-azabicyclo[2.2.1]heptan-7-amine]: the pIC50 is 7.60.
For `COc1cc(C(=O)N2C[C@H]3CC[C@@H]2[C@@H]3N)cc2nc(-c3cc4cccnc4n3CC3CC3)n(CC3CN(c4ccccc4C(C)=O)C3)c12` [Example 85, 1-{2-[3-({5-[(1R,4R,7R)-7-amino-2-azabicyclo[2.2.1]heptane-2-carbonyl]-2-[1-(cyclopropylmethyl)-1H-pyrrolo[2,3-b]pyridin-2-yl]-7-methoxy-1H-1,3-benzodiazol-1-yl}methyl)azetidin-1-yl]phenyl}ethan-1-one] the value was 6.20; for `COc1cc(C(=O)N2C[C@H]3CC[C@@H]2[C@@H]3N)cc2nc(-c3cc4cccnc4n3CC3CC3)n(CC3CN(C(=O)c4cnc(C#N)nc4)C3)c12` [Example 127, 5-[3-({5-[(1R,4R,7R)-7-amino-2-azabicyclo[2.2.1]heptane-2-carbonyl]-2-[1-(cyclopropylmethyl)-1H-pyrrolo[2,3-b]pyridin-2-yl]-7-methoxy-1H-1,3-benzodiazol-1-yl}methyl)azetidine-1-carbonyl]pyrimidine-2-carbonitrile], 6.96; for `COc1cc(C(=O)N2C[C@H]3CC[C@@H]2[C@@H]3N)cc2nc(-c3cc4cccnc4n3CC3CC3)n(CC3CN(c4ccccc4)C3)c12` [Example 50, (1R,4R,7R)-2-{2-[1-(cyclopropylmethyl)-1H-pyrrolo[2,3-b]pyridin-2-yl]-7-methoxy-1-[(1-phenylazetidin-3-yl)methyl]-1H-1,3-benzodiazole-5-carbonyl}-2-azabicyclo[2.2.1]heptan-7-amine], 6.85.
For `COc1cc(C(=O)N2CC3CCC2[C@@H]3N)cc2nc(-c3cc4cccnc4n3CC3CC3)n(CC3CN(C(=O)c4ccc(Cl)cc4)C3)c12` (stereo partly drawn) [Example 429, (7R)-2-(1-{[1-(4-chlorobenzoyl)azetidin-3-yl]methyl}-2-[1-(cyclopropylmethyl)-1H-pyrrolo[2,3-b]pyridin-2-yl]-7-methoxy-1H-1,3-benzodiazole-5-carbonyl)-2-azabicyclo[2.2.1]heptan-7-amine] the value was 7.54; for `COc1cc(C(=O)N2C[C@H](N)C[C@@H](F)C2)cc2nc(-c3cc4ccccc4n3CC3CC3)n(CC3CCC(=O)N3)c12` (stereo partly drawn) [Example 283, 5-({5-[(3R,5R)-3-amino-5-fluoropiperidine-1-carbonyl]-2-[1-(cyclopropylmethyl)-1H-indol-2-yl]-7-methoxy-1H-1,3-benzodiazol-1-yl}methyl)pyrrolidin-2-one], 6.05.
For `COc1cc(C(=O)N2C[C@H]3CC[C@@H]2[C@@H]3N)cc2nc(-c3cc4ccccc4n3CC3CC3)n(CC3CN(C(=O)c4ccc(C#N)cc4)C3)c12` [Example 91, 4-[3-({5-[(1R,4R,7R)-7-amino-2-azabicyclo[2.2.1]heptane-2-carbonyl]-2-[1-(cyclopropylmethyl)-1H-indol-2-yl]-7-methoxy-1H-1,3-benzodiazol-1-yl}methyl)azetidine-1-carbonyl]benzonitrile] the value was 8.05.
